System: spleen lymphocytes of B2-haplotype chicken infected with ALV-J
Assay: IFN-γ ELISpot assay detecting immunogenicity of candidate peptides
Assay type: cell-based
Details: peptide 10 μg/mL as stimulant, spleen lymphocytes of B2-haplotype chicken infected for 28 d; for IFN-γ ELISpot spots generated compared with the negative control group: 24-48 h; for IFN-γ ELISpot spots, significance versus negative control (immunogenic T cell epitope): P<0.05, three independent replications
Method: The B2-haplotype chicken infected for 28 d (day) in 2.1 is taken, and the spleen lymphocytes of the chicken are isolated according to the kit instructions of the chicken organ tissue mononuclear cell isolation solution, and an ELISpot assay is performed to detect the immunogenicity of candidate peptide epitopes. The specific steps are as follows:
(1) PVDF 96-well plate activation: 15 μL 35% ethanol is added to each well for reaction for less than 1 min, and then the wells are washed five times with sterile water.
(2) Antibody coating: the anti-chicken IFN-γ is diluted to 15 μg/mL, and 100 μL of that is added to each well, and the mixture is incubated at 4° C. overnight.
(3) Blocking: the coating solution is discarded, followed by washing 5 times with DPBS, and the plate is dried on the sterilized absorbent paper. RMPI 1640 medium containing 10% FBS is added to PVDF 96-well plate at 200 μL/well and the reaction is blocked at room temperature for 30 min.
(4) Stimulation: the blocking solution is discarded and 100 μL of prepared lymphocyte suspension at the concentration of 5*10^6 cells/mL is added to each well. At the same time, 50 μL diluted antigenic peptide is added to the experimental group at the final concentration of 10 μg/mL, PMA at the final concentration of 10 μg/mL is added to the positive control group, and no irritant is added to the negative control group. After all the samples are added, PVDF 96-well plate is placed in CO2 incubator at 37° C. for 24-48 h.
(5) Incubation of secondary antibody: after the culture, the cells are shaken off and the plate is washed five times with DPBS. Then 100 μL biotinylated secondary antibody with a concentration of 1 μg/mL is added to each well and the plate is incubated for 2 h at room temperature.
(6) HRP incubation: the secondary antibody solution is discarded and washed with DPBS for 5 times. Then 100 μL streptavidin-labeled HRP is added to the well and incubated at room temperature for 1 h.
(7) Color development: the HRP incubation solution is discarded and the plate is washed with DPBS for 5 times. Then 100 μL TMB color-developing substrate is added to each well followed by incubation at room temperature or 37° C. for 15-30 min. When obvious spots appeared in the positive control group, the color-developing solution could be discarded. the color development is stopped with pure water and the plate is read after air drying.

| Sequence | IFN-γ ELISpot spots generated compared with the negative control group | IFN-γ ELISpot spots, significance versus negative control (immunogenic T cell epitope) |
| --- | --- | --- |
| FVDFANRLI (ALV-J-59) | could generate spots | significantly produce more spots |
| SALQAFREV (ALV-J-61) | could generate spots | significantly produce more spots |
| TVDTASSAI (ALV-J-52) | could generate spots | significantly produce more spots |

— patent publication US20230227505A1, “IDENTIFICATION AND APPLICATION OF ALV-J MHC-B2 R[…] PEPTIDE” (South China Agricultural University, priority 2022, published 2023)
